Assay results as given in PubChem BioAssay (NCI).
Several values for one entry are separate records, joined by “and”; a condition that tells them apart may be missing. Equal values may be shown once.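 Cells were grown in 96-well plates and exposed to each compound for 48 hours at five concentrations; endpoints were interpolated linearly between bracketing concentrations, or set to the highest concentration if not reached. GI50 marks 50% less growth. TGI marks complete inhibition of growth.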

Tests used:
Assay in all cases: NCI anticancer screen, dose series, 48 h
[1] = test system: IGROV1 ovarian
[2] = test system: UACC-62 melanoma
[3] = test system: OVCAR-5 ovarian
[4] = test system: UACC-257 melanoma
[5] = test system: UO-31 renal
[6] = test system: SF-539 CNS
[7] = test system: A498 renal
[8] = test system: SF-295 CNS
[9] = test system: NCI-H23 lung
[10] = test system: CAKI-1 renal

`COC(=O)C1=C(C(=O)ON)C2C=CC1(C(Cc1ccccc1)Nc1ccccc1)O2` (stereo not drawn) was tested, and the GI50 [1] was 1.87 µM, the TGI [1] was 3.49 µM and the GI50 [2] was 2.24 µM. It also gave a TGI [2] of 6.66 µM, a GI50 [3] of 3.27 µM and a TGI [3] of 12.1 µM. The GI50 [4] was 1.81 µM, the TGI [4] was 3.34 µM and the GI50 [5] was 1.47 µM. For the same molecule, the TGI [5] was 2.8 µM, the GI50 [6] was 11.5 µM and the TGI [6] was 23.7 µM. For the same molecule, the GI50 [7] was 14.7 µM, the TGI [7] was 27.9 µM and the GI50 [8] was 13.8 µM. It also gave a TGI [8] of 26.7 µM, a GI50 [9] of 12 µM and a TGI [9] of 28.1 µM. The GI50 [10] was 1.63 µM and the TGI [10] was 3.03 µM.

`COc1cc2c3c(n(CCCN)c(=O)c2cc1OC)-c1cc2c(cc1/C3=C\CCN)OCO2` gave a GI50 [1] of 3.74 µM, a TGI [1] greater than 26.8 µM and a GI50 [2] of 1.75 µM. The TGI [2] was 4.98 µM, the GI50 [3] was 4.29 µM and the TGI [3] was greater than 26.1 µM. For the same molecule, the GI50 [4] was 8.29 µM, the TGI [4] was 19.2 µM and the GI50 [5] was 13.5 µM. It also gave a TGI [5] of 45.7 µM, a GI50 [6] of 1.62 µM and a TGI [6] of 4.41 µM. The GI50 [7] was 35.9 µM, the TGI [7] was 97.2 µM and the GI50 [8] was 3.33 µM. It also gave a GI50 [9] of 5.35 µM, a TGI [9] of 24.1 µM and a GI50 [10] of 23.6 µM. For the same molecule, the TGI [10] was greater than 100 µM.

`Ic1ccccc1-c1ccccc1` showed a GI50 [1] greater than 100 µM, a TGI [1] greater than 100 µM and a GI50 [2] of 46.7 µM. It also gave a TGI [2] greater than 100 µM, a GI50 [3] greater than 100 µM and a TGI [3] greater than 100 µM. The GI50 [4] was greater than 100 µM, the TGI [4] was greater than 100 µM and the GI50 [5] was 74.5 µM. It also gave a TGI [5] greater than 100 µM, a GI50 [6] greater than 100 µM and a TGI [6] greater than 100 µM. For the same molecule, the GI50 [7] was 65.1 µM, the TGI [7] was greater than 100 µM and the GI50 [8] was greater than 100 µM. The TGI [8] was greater than 100 µM, the GI50 [9] was greater than 100 µM and the TGI [9] was greater than 100 µM. The GI50 [10] was greater than 100 µM and the TGI [10] was greater than 100 µM.

`O=c1ccn(C2OC(CO/N=C/c3ccc(O)c(O)c3O)C(O)C2O)c(=O)[nH]1` (stereo not drawn) was tested, and the GI50 [1] was 19.4 µM, the TGI [1] was 38.5 µM and the GI50 [2] was 76.4 µM. It also gave a TGI [2] greater than 100 µM, a GI50 [3] greater than 100 µM and a TGI [3] greater than 100 µM. For the same molecule, the GI50 [4] was 33.5 µM, the TGI [4] was greater than 100 µM and the GI50 [5] was 17.2 µM. It also gave a TGI [5] of 31.6 µM, a GI50 [6] of 52.1 µM and a TGI [6] greater than 100 µM. For the same molecule, the GI50 [7] was 15.4 µM, the TGI [7] was 39.2 µM and the GI50 [8] was 10.5 µM. It also gave a TGI [8] of 24.1 µM, a GI50 [9] of 22.6 µM and a TGI [9] of 49.6 µM. It also gave a GI50 [10] of 49.7 µM and a TGI [10] greater than 100 µM.

Work on `Nc1c(Br)cc(Br)c2c1[nH]c(=O)c1ccccc12` yielded a GI50 [1] of 4.85 µM, a TGI [1] of 38.5 µM and a GI50 [2] of 46.8 µM. The TGI [2] was greater than 100 µM, the GI50 [3] was 25.7 µM and the TGI [3] was greater than 100 µM. The GI50 [4] was 21.7 µM, the TGI [4] was greater than 100 µM and the GI50 [5] was 2.17 µM. It also gave a TGI [5] of 5.9 µM, a GI50 [6] of 42 µM and a TGI [6] greater than 100 µM. It also gave a GI50 [7] of 1.68 µM, a TGI [7] of 4.86 µM and a GI50 [8] of 3.1 µM. For the same molecule, the TGI [8] was 10.2 µM, the GI50 [9] was 20.7 µM and the TGI [9] was greater than 100 µM. For the same molecule, the GI50 [10] was 3.69 µM and the TGI [10] was 21.3 µM.

`N#CC(C(=O)CCC(=O)C(C#N)c1ccccc1)c1ccccc1` (stereo not drawn) was tested, and the TGI [1] was greater than 100 µM, the TGI [2] was greater than 100 µM and the TGI [3] was greater than 100 µM. For the same molecule, the TGI [4] was greater than 100 µM, the TGI [5] was greater than 100 µM and the TGI [6] was greater than 100 µM. It also gave a TGI [7] greater than 100 µM, a TGI [8] greater than 100 µM and a TGI [9] greater than 100 µM. For the same molecule, the TGI [10] was greater than 100 µM.

In the case of `Cc1c(-c2c(-c3ccc(F)o3)sc3ncnc(O[C@H](Cc4ccccc4OCc4ccnn4CC(F)(F)F)C(=O)O)c23)ccc(OCCN2CCN(C)CC2)c1Cl`, the GI50 [1] is reported as 5.68 µM, the TGI [1] is reported as 14.8 µM and the GI50 [2] is reported as 0.249 µM. For the same molecule, the TGI [2] was 3.13 µM, the GI50 [3] was 4.81 µM and the TGI [3] was 14.8 µM. It also gave a GI50 [4] of 5.24 µM, a TGI [4] of 12.9 µM and a GI50 [5] of 6.25 µM. The TGI [5] was 18.6 µM, the GI50 [6] was 2.89 µM and the TGI [6] was 6.27 µM. For the same molecule, the GI50 [7] was 3.03 µM, the TGI [7] was 9.6 µM and the GI50 [8] was 3.55 µM. The TGI [8] was 7.55 µM, the GI50 [9] was 2.59 µM and the TGI [9] was 7.6 µM. For the same molecule, the GI50 [10] was 6.21 µM and the TGI [10] was 19.2 µM.

`Cc1ccc(-n2c3c(c4c(CN(C)C)c(O)ccc42)CCc2ccccc2C3=O)cc1` showed a GI50 [1] of 10.8 µM, a TGI [1] of 25.8 µM and a GI50 [2] of 17 µM. The TGI [2] was 30.9 µM, the GI50 [3] was 19.7 µM and the TGI [3] was 52.9 µM. The GI50 [4] was 17.7 µM, the TGI [4] was 34 µM and the GI50 [5] was 15.9 µM. It also gave a TGI [5] of 38.2 µM, a GI50 [6] of 19.3 µM and a TGI [6] of 36 µM. The GI50 [7] was 15.1 µM, the TGI [7] was 49.1 µM and the GI50 [8] was 18.3 µM. For the same molecule, the TGI [8] was 35.9 µM, the GI50 [9] was 14.6 µM and the TGI [9] was 29.6 µM. The GI50 [10] was 17.2 µM and the TGI [10] was 44.1 µM.

`CCOC(=O)c1[nH]c(Br)c(-c2ccc(Br)cc2)c1Br` was tested, and the GI50 [1] was 0.851 µM, the TGI [1] was 6.34 µM and the GI50 [2] was 0.362 µM. The GI50 [3] was 5.77 µM, the TGI [3] was greater than 100 µM and the GI50 [4] was 0.597 µM. The TGI [4] was 42.9 µM, the GI50 [5] was 1.13 µM and the TGI [5] was 5.71 µM and 8.57 µM. For the same molecule, the GI50 [6] was 0.298 µM, the TGI [6] was 1.85 µM and 0.858 µM and the GI50 [7] was 0.288 µM. The TGI [7] was 5.28 µM and 1.22 µM, the GI50 [8] was 0.145 µM and the TGI [8] was 0.763 µM and 0.815 µM. For the same molecule, the GI50 [9] was 2.48 µM, the TGI [9] was 6.94 µM and 14.3 µM and the GI50 [10] was 0.49 µM. The TGI [10] was 3.06 µM and 2.62 µM.
